ChEMBL document CHEMBL3727361, “Nitrogen bicyclic compounds as inhibitors for Scyl1 and Grk5” (2014)

Tested on: Beta-TC6
Test: Increase in insulin release in mouse BetaTC6 cells assessed as relative insulin release activity at 10 uM incubated for 2 to 4 hrs by FRET based HTRF assay relative to sunitinib
Format: functional

Row | SMILES | Activity
1 | c1ccc(-c2nnc3ccc(-c4ccc5c(c4)OCO5)cn23)cc1 | 50%
2 | CN(C)c1cccc(-c2cnc3cnc(-c4ccncc4)cn23)c1 | 20%
3 | Cn1ccc2cc(-c3cn4c(-c5ccc6ncccc6c5)cnc4cn3)ccc21 | >=100%
4 | COc1ccc(-c2cn3c(-c4ccc(OC)nc4)cnc3cn2)cn1 | 20%
5 | COc1ccc(-c2ccc3nnc(-c4ccccc4C)n3c2)cc1OC | 50%
6 | COc1cc(-c2cnc3ccc(NCc4cccc(Cl)c4)nn23)ccc1O | 20%
7 | CN1CCN(C(=O)c2cccc(-c3cnc4cnc(-c5ccc(OC(F)(F)F)cc5)cn34)c2)CC1 | 20%
8 | c1ccc(-c2ccc3ncc(-c4ccc5c(c4)OCO5)n3n2)cc1 | 20%
9 | Clc1cccc(-c2cn3c(-c4cccs4)cnc3cn2)c1 | 20%
10 | Clc1ccc(-c2cnc3cnc(-c4ccncc4)cn23)cc1 | 20%
11 | CS(=O)(=O)Nc1cccc(-c2cn3c(-c4cccnc4)cnc3cn2)c1 | 20%
12 | Fc1cccc(-c2cnc3cnc(-c4ccc(Cl)cc4)cn23)c1 | 20%
13 | CN(C)CCCOc1ccc(-c2nnc3ccc(C#Cc4ccc(C(=O)N(C)C)cc4)cn23)cc1 | 20%
14 | COc1ccc(-c2cn3c(-c4cccc(O)c4)cnc3cn2)cn1 | 20%
15 | O=S1(=O)CCN(CC#Cc2ccc3nnc(-c4cscn4)n3c2)CC1 | 10%
16 | COc1ccc(-c2cn3c(-c4ccc(N(C)C)cc4)cnc3cn2)cn1 | 50%
17 | COc1cc(OC)cc(-c2cn3c(-c4cccc(O)c4)cnc3cn2)c1 | 20%
18 | Cc1ccc(CNc2ccc3ncc(-c4ccc(C(=O)NCCN(C)C)cc4)n3n2)c(C)c1 | 20%
19 | c1cncc(CCNc2ccc3ncc(-c4ccc5ccccc5c4)n3n2)c1 | 10%
20 | Cc1ccccc1-c1nnc2ccc(-c3ccc(C(N)=O)cc3)cn12 | 20%
21 | OCc1cccc(-c2cnc3cnc(-c4cccs4)cn23)c1 | 20%
22 | CCOc1cccc(-c2cn3c(-c4ccc(O)c(OC)c4)cnc3cn2)c1 | 50%
23 | CC(C)N1CCN(c2ccc(-c3cn4c(-c5ccc(O)cc5)cnc4cn3)cc2)CC1 | 20%
24 | COc1ccc(CNc2ccc3ncc(-c4ccc5[nH]ccc5c4)n3n2)cc1 | 20%
25 | Fc1ccc(-c2ccc3ncc(-c4cccs4)n3n2)cc1Cl | 20%
26 | CNc1ccc2ncc(-c3ccccc3O)n2n1 | 20%
27 | CS(=O)(=O)Nc1cccc(-c2ccc3ncc(-c4ccncc4)n3n2)c1 | 20%

Row | SMILES | Activity
28 | COc1cc(OC)cc(-c2cnc3cnc(-c4ccccc4N(C)C)cn23)c1 | 20%
29 | CN(C)c1ccc(-c2cnc3cnc(-c4ccc(C(=O)NCCO)cc4)cn23)cc1 | 50%
30 | COc1ccc(-c2nnc3ccc(C#Cc4ccncc4)cn23)cc1OC | 50%
31 | C(=C\c1cn2c(-c3cccs3)cnc2cn1)/c1ccccc1 | 20%
32 | Clc1ccccc1-c1ccc2nnc(-c3cscn3)n2c1 | 50%
33 | FC(F)(F)Oc1cccc(-c2nnc3ccc(C#Cc4ccccc4)cn23)c1 | 20%
34 | COc1cc(-c2cnc3cnc(-c4cnn(C)c4)cn23)ccc1O | 50%
35 | COc1cc(-c2ccc3nnc(-c4ccc5nccnc5c4)n3c2)ccc1O | 50%
36 | Cn1cc(-c2cnc3cnc(-c4ccncc4)cn23)cn1 | 20%
37 | c1csc(-c2ccc3nnc(-c4ccoc4)n3c2)c1 | 50%
38 | FC(F)(F)Oc1cccc(-c2cnc3cnc(-c4cccnc4)cn23)c1 | 20%
39 | CN1CCN(c2ccc(-c3cn4c(-c5ccc(C(=O)N(C)C)cc5)cnc4cn3)cn2)CC1 | 20%
40 | COc1cc(OC)cc(-c2cnc3cnc(-c4cccc(OC(C)C)c4)cn23)c1 | 20%
41 | COc1cc(-c2cnc3cnc(-c4ccc(N)nc4)cn23)ccc1O | 20%
42 | CN(C)CCNC(=O)c1ccc(-c2cn3c(-c4ccc(N(C)C)cc4)cnc3cn2)cc1 | 50%
43 | CC(=O)c1cccc(-c2cnc3cnc(-c4cccc(F)c4)cn23)c1 | 20%
44 | CN(C)c1cccc(-c2cn3c(NC(=O)c4ccccc4)cnc3cn2)c1 | 50%
45 | O=C(NC1CCCC1)c1ccc(-c2cn3c(-c4ccc(CO)cc4)cnc3cn2)cc1 | 20%
46 | COc1ccc(-c2ccc3ncc(-c4cccc(Cl)c4)n3n2)cc1OC | 20%
47 | c1cc(-c2nnc3ccc(-c4ccc(N5CCOCC5)cc4)cn23)ccn1 | 20%
48 | CN(C)c1ccc(-c2ccc3nnc(-c4cccnc4)n3c2)cc1 | 50%
49 | Fc1ccc(-c2cn3c(-c4ccsc4)cnc3cn2)cc1Cl | 20%
50 | OCc1ccc(-c2cn3c(-c4cccs4)cnc3cn2)cc1 | 20%
51 | CNC(=O)c1cccc(-c2ccc3nnc(-c4ccc5c(c4)OCO5)n3c2)c1 | 20%
52 | COc1cc(-c2cnc3cnc(-c4ccc(N5CCN(C)CC5)nc4)cn23)ccc1O | 20%
53 | COc1cc(CNc2ccc3ncc(-c4ccc(N(C)C)cc4)n3n2)cc(OC)c1OC | 10%
54 | Fc1cccc(-c2cnc3cnc(-c4ccc(N5CCNCC5)cc4)cn23)c1 | 10%

Row | SMILES | Activity
55 | O=C(Nc1cnc2cnc(-c3ccc4ccccc4c3)cn12)C1CCOC1 (centres undefined) | 10%
56 | COc1cc(-c2ccc3nnc(-c4cccc(C(F)(F)F)c4)n3c2)cc(OC)c1OC | 50%
57 | NC(=O)c1ccc(-c2ccc3ncc(-c4ccccc4)n3n2)cc1 | 20%
58 | Clc1ccc(-c2cnc3cnc(-c4cccs4)cn23)cc1 | 20%
59 | c1csc(-c2cn3c(-c4ccsc4)cnc3cn2)c1 | 50%
60 | N#Cc1ccc(-c2cnc3cnc(-c4cccs4)cn23)cc1 | 20%
61 | COc1cccc(-c2ccc3ncc(-c4cccc(Cl)c4)n3n2)c1 | 10%
62 | CN(C)CCCNC(=O)c1ccc(-c2ccc3nnc(-c4cccc(C(F)(F)F)c4)n3c2)cc1 | 20%
63 | CN(C)c1ccc(-c2cnc3cnc(-c4ccc(O)cc4)cn23)cc1 | 50%
64 | Cn1cc(-c2cnc3cnc(-c4cc5ccccc5s4)cn23)cn1 | 20%
65 | COc1cc(-c2nnc3ccc(-c4ccc(N5CCN(C)CC5)cc4)cn23)ccc1O | 20%
66 | CCCC/C=C/c1cn2c(NC(=O)Cc3cccc(OC)c3)cnc2cn1 | 10%
67 | CN(C)c1ccc(-c2cnc3cnc(-c4cccc(C(=O)NCCO)c4)cn23)cc1 | 20%
68 | CC(=O)c1cccc(-c2cnc3cnc(-c4cccs4)cn23)c1 | 50%
69 | Nc1cccc(-c2cn3c(-c4cccc(F)c4)cnc3cn2)c1 | 20%
70 | Clc1cccc(-c2nnc3ccc(-c4cccnc4)cn23)c1 | 50%
71 | c1cnc2ccc(-c3ccc4nnc(-c5cscn5)n4c3)cc2c1 | 50%
72 | C(#Cc1ccccn1)c1ccc2nnc(-c3ccccc3)n2c1 | 50%
73 | Cc1cc(-c2cnc3cccnn23)cc(C)c1O | 10%
74 | CCCNc1ccc2ncc(-c3ccc(C(=O)O)cc3)n2n1 | 10%
75 | COc1ccc(-c2nnc3ccc(-c4cccs4)cn23)cc1OC | 50%
76 | OCc1ccc(-c2cnc3cnc(-c4ccc(Cl)cc4Cl)cn23)cc1 | 20%
77 | O=C(NC1CC1)c1ccc(-c2cn3c(-c4ccccc4)cnc3cn2)cc1 | 20%
78 | CN(C)c1ccccc1-c1cn2c(-c3cccs3)cnc2cn1 | 20%
79 | CN1CCN(C(=O)c2ccc(-c3cnc4cnc(/C=C/c5ccccc5)cn34)cc2)CC1 | 10%
